Assay results: patent US12570657B2, “Mesylate salts of heterocyclic cytokinins, compositions containing these derivatives and use thereof” (UNIVERZITA PALACKEHO V OLOMOUCI, priority 2020, dated 2026)

Key:
[1] = Aqueous solubility: concentration of saturated solution by HPLC; assay type: physicochemical; conditions: thermodynamic from solid; saturated solution in water, cytokinin mesylate; read-out: c of CK mesylate
Description: Aqueous solubility was measured using the following protocol. Supersaturated solution of meta-topolin mesylate salt was prepared. The solutions were filtered off from visible undissolved particles of the salt to obtain homogenic saturated solution. Saturated solution was diluted 1:10 000 and measured using HPLC Alliance Waters 2690 with C18 Symmetry column with the diameter 2.1 mm and 150 mm length with a porosity of 5 μm. The sample was dissolved in the mobile phase (MeOH: HCOONH4-1:9). The sample was washed with a methanol gradient (10-90%, 35 min) at pH 4 and a flow rate of 0.3 ml/min. The absorbances of the components were detected in the UV region at 210-400 nm. The peak area of meta-topolin mesylate salt was 595 027. The standard was measured as shown in the Table 9 below, Obtained peak area was compared to area peaks measured at certain concentration and the final concentration of saturated solution was determined
Solubility of other cytokinin (CK) mesylates was also determined by this method and the concentrations of saturated solutions are given below in Table 10: […]

[2] = tested on: K562 (chronic myeloid leukemia); assay: In vitro cytotoxicity, Calcein AM assay, K-562; assay type: cell-based; conditions: Homo sapiens, K562, 72 h, 3-day Calcein-AM assay
Description: (§1) Because toxic compounds adversely affect cell metabolic processes, many standard cytotoxicity assays are based on measuring the rate of metabolism of various artificial substrates. The resulting product is then quantified, for example, by spectrometry. Assays can be easily modified for use in 96-well plates, A microtiter assay based on the quantification of Calcein AM metabolism was used to evaluate the cytotoxicity of cytokinins, for example meta-topolin, ortho-topolin, kinetin, BAP or its mesylate salts, but also a number of other cytokinin mesylate derivatives according to the invention. The test is widely used in drug screening programs and in chemosensitivity testing. In living cells, Calcein AM is enzymatically hydrolyzed and the accumulation of the resulting calcein is manifested by green fluorescence. […] These cells were maintained in standard DMEM or RPMI medium (Sigma, MO, USA) supplemented with heat-inactivated fetal bovine serum (10%) with 2 mM L-glutamine and penicillin-streptomycin (1%) under standard cell culture conditions (37° C., 5% CO2 in a humid environment) and subcultured two or three times a week using a standard trypsinization procedure. Approximately 10,000 cells in 80 μl of medium were seeded in a 96-well microtiter plate. After 12 hours of incubation, the compounds to be tested were added in 20 μl aliquots. Control cultures were treated with DMSO alone. […] After 72 hours of incubation, Calcein AM solution (Molecular Probes) was added to a final concentration of 1 μg/ml and the cells were incubated for another hour.
(§2) Cytoxicity of compounds was tested on panel of cell lines of different histogenetic and species origin.

[3] = tested on: MCF-7 (breast adenocarcinoma); assay: In vitro cytotoxicity, Calcein AM assay, MCF7; assay type: cell-based; conditions: 3-day Calcein-AM assay
Description: as §1, §2

[4] = tested on: CEM (T-lymphoblastic leukemia); assay: In vitro cytotoxicity, Calcein AM assay, CEM; assay type: cell-based; conditions: 3-day Calcein-AM assay
Description: as §1, §2

skin fibroblasts BJ = assay: Cytotoxicity for non-cancer cells, resazurine reduction assay, BJ
Description: (§3) It is used for viability testing of both bacterial and eukaryotic cells. […] Cultivation medium was DMEM with 10% FBS. Before the experiment, the cells were subcultured for 2 weeks. For the cytotoxicity evaluation, the cells were trypsinized and pipetted into 96 well plates (5000 cells per well in 80 microliters). After 24 hours, 5× concentrated solutions of the tested compounds in the medium were added. […] IC50 values were calculated from dose response curves using drc library for R programming environment.

keratinocytes HaCaT = assay: Cytotoxicity for non-cancer cells, resazurine reduction assay, HaCaT; conditions: resazurin, 72 hour treatment, HaCaT
Description: as §3

[5] = tested on: retinal epitelium cells ARPE-19; assay: Cytotoxicity for non-cancer cells, resazurine reduction assay, ARPE-19; conditions: resazurin, 72 hour treatment, ARPE-19
Description: as §3

[6] = tested on: winter wheat leaf segments; assay: Senescence bioassay: retention of chlorophyll in excised winter wheat leaf tips; assay type: in vivo, Triticum aestivum cv. Hereward; conditions: chlorophyll retention at concentration with highest activity; 10^−4 M BAP = 100%
Description: Seeds of winter wheat, Triticum aestivum cv. Hereward, were washed under running water for 24 hours and then sown on vermiculite soaked with Knop's solution. They were placed in a growth chamber at 25° C. with a 16/8 h light/dark period at 50 μmol·m^−2·s^−1. After 7 days, the first leaf was fully developed and the second leaf had started to grow. A tip section of the first leaf, approximately 35 mm long, was removed from 5 seedlings and trimmed slightly to a combined weight of 100 mg. The basal ends of the five leaf tips were placed in the wells of a microtiter polystyrene plate containing 150 μl of each tested compound solution. The entire plate was inserted into a plastic box lined with paper tissues soaked in distilled water to prevent leaf sections from drying out. After 96 h incubation in the dark at 25° C., the leaves were removed and chlorophyll extracted by heating at 80° C. for 10 min in 5 ml of 80% ethanol (v/v). The sample volume was then restored to 5 ml by the addition of 80% ethanol (v/v). The absorbance of the extract was recorded at 665 nm. In addition, chlorophyll extracts from fresh leaves and leaf tips incubated in deionised water were measured. […] Relative activity of the compound at this concentration was calculated (Tab. 3). The activity obtained for 10^−4 M 6-benzylaminopurine (BAP) was postulated as 100%. The values shown are means of five replicates and the whole experiment was repeated twice. The tested cytokinin bases were dissolved in dimethylsulfoxide (DMSO) and the solution brought up to 10^−3 M with distilled water. Cytokinin mesylate salts which are more water-soluble (BAP mesylate, meta-topolin mesylate and kinetin mesylate) could be directly dissolved to form a 10^−3 M solution in distilled water.

[7] = tested on: cytokinin-dependent tobacco callus; assay: Tobacco callus biotest (stimulation of plant cell division); assay type: cell-based, Nicotiana tabacum L. cv. Wisconsin 38; conditions: callus growth at concentration with highest activity; 10^−5 M BAP = 100%
Description: Stimulation effect of the cytokinin mesylates was tested in tobacco callus biotest using cytokinin dependent tobacco callus. Cytokinin-dependent tobacco callus Nicotiana tabacum L. cv. […] Subcultivation was carried out every three weeks. Fourteen days before the bioassay, the callus tissue was transferred to the media without BAP. Biological activity was determined from the increase in fresh callus weight after four weeks of cultivation. Five replicates were prepared for each cytokinin concentration and the entire test was repeated twice. […] Relative activity of the compound at this concentration was calculated (Tab. 15). The activity obtained for 10^−5 M 6-benzylaminopurine (BAP) was postulated as 100%. The cytokinin bases to be tested were dissolved in dimethylsulfoxide (DMSO) and the solution brought up to 10^−3 M with distilled water. The mesylate salts were dissolved directly in distilled water.

[8] = tested on: HL-60 (promyelocytic, leukemia); assay: In vitro cytotoxicity, Calcein AM assay, HL60; assay type: cell-based; conditions: 3-day Calcein-AM assay
Description: as §1, §2

[9] = resazurin, 72 hour treatment, BJ

SMILES	solubility thermodynamic [1]	IC50 [2]	IC50 ([3]; Homo sapiens, MCF7, 72 h)	IC50 ([4]; 72 h)	Cytotoxicity for Fibroblasts (GI20) BJ (skin fibroblasts BJ; human, 72 h)	Cytotoxicity for Fibroblasts (GI20) HaCaT (keratinocytes HaCaT)	Cytotoxicity for Fibroblasts (GI20) ARPE-19 [5]	activity (%) [10^−4 mol · l^−1 BAP = 100%] [6]	IC50 ([4]; mesylate)	activity (%) [10^−5 mol · l^−1 BAP = 100%] [7]	IC50 [3]	IC50 [4]	IC50 [8]	Cytotoxicity for Fibroblasts (GI20) BJ (skin fibroblasts BJ; [9])
CS(=O)(=O)O.c1coc(CNc2ncnc3nc[nH]c23)c1 [Kinetin mesylate, 6-furfurylaminopurine mesylate]	92.6 mM	> 167 µM	> 167 µM	> 167 µM	>100 µM	>100 µM	>100 μM	110.9%						
CS(=O)(=O)O.Oc1ccccc1CNc1ncnc2nc[nH]c12 [oT mesylate, 6-(2-hydroxybenzylamino)purine mesylate]	82.3 mM				>100 µM	>100 µM	>100 μM	69%	89.4 µM	87%				
C/C(=C\CNc1ncnc2[nH]cnc12)CO.CS(=O)(=O)O [tZ mesylate, (E)-4-(9H-Purin-6-Ylamino)-2-Methybut-2-En-1-ol)Methanesulphonate]						>100 µM	>100 μM	114%		111%	> 167 µM	> 167 µM	> 167 µM	>100 µM
C/C(=C\CNc1ncnc2nc[nH]c12)CO [trans-zeatin (tZ), trans-zeatin]						>100 µM	>100 μM	110%		109%	> 167 µM	> 167 µM	> 167 µM	>100 µM
